Laboratory results: PubChem BioAssay AID1963448 (Molecular Pharmacology Branch, DTP, NCI, 2024)

Test system: 616215-338-R-J1-PDC complex spheroid growth, % test/control
Assay: Anticancer human tumor 616215-338-R-J1-PDC patient-derived colon adenocarcinoma cell line growth inhibition [Asc]
Settings: for IC50: curve of first compound; for viability, T/C: stronger effect = lower value
How it was run: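 Tumor cells were grown as complex spheroids with human endothelial cells (HUVEC) and human mesenchymal stem cells as stroma. Agents were tested alone and in combination, in half-log steps down from the clinical Cmax, or from 10 microM where Cmax was unknown.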

[1] = second compound 0.03 µM, first compound 0.0316 µM
[2] = second compound 0.03 µM, first compound 0.1 µM
[3] = second compound 0.03 µM, first compound 0.316 µM
[4] = second compound 0.03 µM, first compound 1 µM
[5] = second compound 0.03 µM, first compound 3.16 µM
[6] = second compound 0.03 µM, first compound 10 µM
[7] = second compound 0.0949 µM, first compound 0.0316 µM
[8] = second compound 0.0949 µM, first compound 0.1 µM
[9] = second compound 0.0949 µM, first compound 0.316 µM
[10] = second compound 0.0949 µM, first compound 1 µM
[11] = second compound 0.0949 µM, first compound 3.16 µM
[12] = second compound 0.0949 µM, first compound 10 µM
[13] = second compound 0.3 µM, first compound 0.0316 µM
[14] = second compound 0.3 µM, first compound 0.1 µM
[15] = second compound 0.3 µM, first compound 0.316 µM
[16] = second compound 0.3 µM, first compound 1 µM
[17] = second compound 0.3 µM, first compound 3.16 µM
[18] = second compound 0.3 µM, first compound 10 µM
[19] = second compound 0.949 µM, first compound 0.0316 µM
[20] = second compound 0.949 µM, first compound 0.1 µM
[21] = second compound 0.949 µM, first compound 0.316 µM
[22] = second compound 0.949 µM, first compound 1 µM
[23] = second compound 0.949 µM, first compound 3.16 µM
[24] = second compound 0.949 µM, first compound 10 µM
[25] = second compound 3 µM, first compound 0.0316 µM
[26] = second compound 3 µM, first compound 0.1 µM
[27] = second compound 3 µM, first compound 0.316 µM
[28] = second compound 3 µM, first compound 1 µM
[29] = second compound 3 µM, first compound 3.16 µM
[30] = second compound 3 µM, first compound 10 µM
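Also: spheroids exposed to agents for seven days before readout.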
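For viability, T/C in this document: 100% = DMSO vehicle control viability.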

| Structure (SMILES) | IC50 (second compound 0.03 µM) | IC50 (second compound 0.0949 µM) | IC50 (second compound 0.3 µM) | IC50 (second compound 0.949 µM) | IC50 (second compound 3 µM) | viability, T/C [1] | viability, T/C [2] | viability, T/C [3] | viability, T/C [4] | viability, T/C [7] | viability, T/C [8] | viability, T/C [9] | viability, T/C [10] | viability, T/C [13] | viability, T/C [14] | viability, T/C [15] | viability, T/C [16] | viability, T/C [19] | viability, T/C [20] | viability, T/C [21] | other results |
| --- | --- | --- | --- | --- | --- | --- | --- | --- | --- | --- | --- | --- | --- | --- | --- | --- | --- | --- | --- | --- | --- |
| C#Cc1c(F)ccc2cc(O)cc(-c3ncc4c(N5CC6CCC(C5)N6)nc(OCC56CCCN5CC(F)C6)nc4c3F)c12 (stereo not given) + CCN1C(C(=O)NC23CCC(C(=O)O)(CC2)CC3)C(c2cccc(Cl)c2F)C2(C(=O)Nc3cc(Cl)ccc32)C12CCCCC2 | > 10 µM | > 10 µM | 1.71 µM | 1.63 µM | < 0.0316 µM | 91.1% | 98.6% | 93.5% | 94.3% | 84.9% | 85.3% | 91.4% | 82.5% | 56.4% | 57.1% | 61.6% | 54% | 63.6% | 66% | 60.5% | viability, T/C [5]: 84.4%; viability, T/C [6]: 67.5%; viability, T/C [11]: 80.3%; viability, T/C [12]: 68.1%; viability, T/C [17]: 44.7%; viability, T/C [18]: 38.4%; viability, T/C [22]: 51%; viability, T/C [23]: 46.5%; viability, T/C [24]: 30%; viability, T/C [25]: 36.6%; viability, T/C [26]: 42.4%; viability, T/C [27]: 36.1%; viability, T/C [28]: 32.4%; viability, T/C [29]: 20.1%; viability, T/C [30]: 17.4% |
| C=C(F)C(=O)N1CCN(c2nc(OCC3CCCN3C)nc3c2CCN(c2cccc4cccc(Cl)c24)C3)CC1CC#N (stereo not given) + CCN1C(C(=O)NC23CCC(C(=O)O)(CC2)CC3)C(c2cccc(Cl)c2F)C2(C(=O)Nc3cc(Cl)ccc32)C12CCCCC2 | 5.68 µM | 4.92 µM | 3.72 µM | 3.83 µM | < 0.0316 µM | 106% | 103% | 109% | 106% | 106% | 96.7% | 99.3% | 93.4% | 69.9% | 67.9% | 66% | 65.7% | 62.2% | 65.5% | 67.6% | viability, T/C [5]: 101%; viability, T/C [6]: 0.87%; viability, T/C [11]: 82%; viability, T/C [12]: 0.4%; viability, T/C [17]: 58.2%; viability, T/C [18]: 0.52%; viability, T/C [22]: 63.8%; viability, T/C [23]: 59.9%; viability, T/C [24]: 0.26%; viability, T/C [25]: 48.9%; viability, T/C [26]: 48.8%; viability, T/C [27]: 46.2%; viability, T/C [28]: 45.6%; viability, T/C [29]: 46.2%; viability, T/C [30]: 0.36% |
| C=CC(=O)N1CCN(c2nc(=O)n(-c3c(C)ccnc3C(C)C)c3nc(-c4c(O)cccc4F)c(F)cc23)C(C)C1 (stereo not given) + CCN1C(C(=O)NC23CCC(C(=O)O)(CC2)CC3)C(c2cccc(Cl)c2F)C2(C(=O)Nc3cc(Cl)ccc32)C12CCCCC2 | > 10 µM | > 10 µM | > 10 µM | > 10 µM | 0.0842 µM | 100% | 96.3% | 102% | 102% | 89.3% | 93.7% | 89.1% | 88.8% | 68.5% | 64.5% | 66.8% | 69.2% | 61.7% | 65% | 65.5% | viability, T/C [5]: 98.2%; viability, T/C [6]: 101%; viability, T/C [11]: 92.9%; viability, T/C [12]: 85.5%; viability, T/C [17]: 67.3%; viability, T/C [18]: 68.7%; viability, T/C [22]: 58.1%; viability, T/C [23]: 60%; viability, T/C [24]: 57.2%; viability, T/C [25]: 48.2%; viability, T/C [26]: 49.8%; viability, T/C [27]: 52.5%; viability, T/C [28]: 50.3%; viability, T/C [29]: 48.9%; viability, T/C [30]: 45.6% |
| CNC(C)C(=O)NC1CN(S(=O)(=O)c2cccc(S(=O)(=O)N3CCC4CCC(C(=O)NC(c5ccccc5)c5ccccc5)N4C(=O)C(NC(=O)C(C)NC)C3)c2)CCC2CCC(C(=O)NC(c3ccccc3)c3ccccc3)N2C1=O (stereo not given) + CCN1C(C(=O)NC23CCC(C(=O)O)(CC2)CC3)C(c2cccc(Cl)c2F)C2(C(=O)Nc3cc(Cl)ccc32)C12CCCCC2 | > 1 µM | > 1 µM | > 1 µM | > 1 µM | < 0.00316 µM | 87.4% | 97.2% | 91% | 87% | 95.7% | 86.6% | 76% | 81.3% | 62.3% | 58.9% | 66.5% | 61.2% | 67.4% | 63.5% | 72.8% | viability, T/C (second compound 0.03 µM, first compound 0.00316 µM): 95.2%; viability, T/C (second compound 0.03 µM, first compound 0.01 µM): 96.1%; viability, T/C (second compound 0.0949 µM, first compound 0.00316 µM): 90.9%; viability, T/C (second compound 0.0949 µM, first compound 0.01 µM): 91.4%; viability, T/C (second compound 0.3 µM, first compound 0.00316 µM): 74.1%; viability, T/C (second compound 0.3 µM, first compound 0.01 µM): 58.8%; viability, T/C (second compound 0.949 µM, first compound 0.00316 µM): 71.5%; viability, T/C (second compound 0.949 µM, first compound 0.01 µM): 75.5%; viability, T/C [22]: 78.5%; viability, T/C (second compound 3 µM, first compound 0.00316 µM): 41.1%; viability, T/C (second compound 3 µM, first compound 0.01 µM): 49.4%; viability, T/C [25]: 51.6%; viability, T/C [26]: 48.7%; viability, T/C [27]: 47.2%; viability, T/C [28]: 52.8% |
